# Values of other authors as cited in PubChem BioAssay AID1259409 (Chemical Carcinogenesis Research Information System (CCRIS), 2018).
# System: rodent chemically induced tumor inhibition, incidence and multiplicity
# Test: CCRIS tumor inhibitor studies
# Conditions: Species: RAT, Promoter: NONE USED
SMILES,"tumour outcome (control, treated, inhibition, significance) (Carcinogen: 1,2-DIMETHYLHYDRAZINE, 540-73-8, Dose [Inhibitor]: 0, 250 PPM IN DIET BEGINNING POST CARCINOGEN TREATMENT AND CONTINUING FOR DURATION OF STUDY (STUDY DURATION: 365 D), Route [Inhibitor]: ORAL, Strain/Sex: F344/MALE, Target Tissue: Type of Lesion: LARGE INTESTINE: ADENOMA OR ADENOCARCINOMA, Dose [Carcinogen]: 20 MG/KG BW 10 TIMES)","tumour outcome (control, treated, inhibition, significance) (Carcinogen: 1,2-DIMETHYLHYDRAZINE, 540-73-8, Dose [Inhibitor]: 0, 250 PPM IN DIET BEGINNING POST CARCINOGEN TREATMENT AND CONTINUING FOR DURATION OF STUDY (STUDY DURATION: 365 D), Route [Inhibitor]: ORAL, Strain/Sex: F344/MALE, Target Tissue: Type of Lesion: SMALL INTESTINE: ADENOCARCINOMA, Dose [Carcinogen]: 20 MG/KG BW 10 TIMES)","tumour outcome (control, treated, inhibition, significance) (Carcinogen: 1,2-DIMETHYLHYDRAZINE, 540-73-8, Dose [Inhibitor]: 0, 500 PPM IN DIET BEGINNING POST CARCINOGEN TREATMENT AND CONTINUING FOR DURATION OF STUDY (STUDY DURATION: 365 D), Route [Inhibitor]: ORAL, Strain/Sex: F344/MALE, Target Tissue: Type of Lesion: LARGE INTESTINE: ADENOMA OR ADENOCARCINOMA, Dose [Carcinogen]: 20 MG/KG BW 10 TIMES)","tumour outcome (control, treated, inhibition, significance) (Carcinogen: 1,2-DIMETHYLHYDRAZINE, 540-73-8, Dose [Inhibitor]: 0, 500 PPM IN DIET BEGINNING POST CARCINOGEN TREATMENT AND CONTINUING FOR DURATION OF STUDY (STUDY DURATION: 365 D), Route [Inhibitor]: ORAL, Strain/Sex: F344/MALE, Target Tissue: Type of Lesion: SMALL INTESTINE: ADENOMA, Dose [Carcinogen]: 20 MG/KG BW 10 TIMES)","tumour outcome (control, treated, inhibition, significance) (Carcinogen: 1,2-DIMETHYLHYDRAZINE, 540-73-8, Dose [Inhibitor]: 0, 1000 PPM IN DIET BEGINNING POST CARCINOGEN TREATMENT AND CONTINUING FOR DURATION OF STUDY (STUDY DURATION: 365 D), Route [Inhibitor]: ORAL, Strain/Sex: F344/MALE, Target Tissue: Type of Lesion: LARGE INTESTINE: ADENOMA OR ADENOCARCINOMA, Dose [Carcinogen]: 20 MG/KG BW 10 TIMES)","tumour outcome (control, treated, inhibition, significance) (Carcinogen: 1,2-DIMETHYLHYDRAZINE, 540-73-8, Dose [Inhibitor]: 0, 1000 PPM IN DIET BEGINNING POST CARCINOGEN TREATMENT AND CONTINUING FOR DURATION OF STUDY (STUDY DURATION: 365 D), Route [Inhibitor]: ORAL, Strain/Sex: F344/MALE, Target Tissue: Type of Lesion: SMALL INTESTINE: ADENOCARCINOMA, Dose [Carcinogen]: 20 MG/KG BW 10 TIMES)","tumour outcome (control, treated, inhibition, significance) (Carcinogen: 1,2-DIMETHYLHYDRAZINE, 540-73-8, Dose [Inhibitor]: 0, 2000 PPM IN DIET BEGINNING POST CARCINOGEN TREATMENT AND CONTINUING FOR DURATION OF STUDY (STUDY DURATION: 365 D), Route [Inhibitor]: ORAL, Strain/Sex: F344/MALE, Target Tissue: Type of Lesion: LARGE INTESTINE: ADENOCARCINOMA, Dose [Carcinogen]: 20 MG/KG BW 10 TIMES)","tumour outcome (control, treated, inhibition, significance) (Carcinogen: 1,2-DIMETHYLHYDRAZINE, 540-73-8, Dose [Inhibitor]: 0, 2000 PPM IN DIET BEGINNING POST CARCINOGEN TREATMENT AND CONTINUING FOR DURATION OF STUDY (STUDY DURATION: 365 D), Route [Inhibitor]: ORAL, Strain/Sex: F344/MALE, Target Tissue: Type of Lesion: SMALL INTESTINE: ADENOCARCINOMA, Dose [Carcinogen]: 20 MG/KG BW 10 TIMES)","tumour outcome (control, treated, inhibition, significance) (Carcinogen: METHYLAZOXYMETHANOL ACETATE, 592-62-1, Dose [Inhibitor]: 0, 500 PPM IN DIET BEGINNING 2 WK POST CARCINOGEN TREATMENT AND CONTINUING FOR DURATION OF STUDY (STUDY DURATION: 255 D), Route [Inhibitor]: ORAL, Strain/Sex: F344/MALE, Target Tissue: Type of Lesion: LARGE INTESTINE: ADENOMA OR ADENOCARCINOMA, Dose [Carcinogen]: 25 MG/KG BW 1/WK FOR 3 WK)","tumour outcome (control, treated, inhibition, significance) (Carcinogen: METHYLAZOXYMETHANOL ACETATE, 592-62-1, Dose [Inhibitor]: 0, 500 PPM IN DIET BEGINNING 2 WK POST CARCINOGEN TREATMENT AND CONTINUING FOR DURATION OF STUDY (STUDY DURATION: 255 D), Route [Inhibitor]: ORAL, Strain/Sex: F344/MALE, Target Tissue: Type of Lesion: SMALL INTESTINE: ADENOCARCINOMA, Dose [Carcinogen]: 25 MG/KG BW 1/WK FOR 3 WK)","tumour outcome (control, treated, inhibition, significance) (Carcinogen: METHYLAZOXYMETHANOL ACETATE, 592-62-1, Dose [Inhibitor]: 0, 1000 PPM IN DIET BEGINNING 2 WK POST CARCINOGEN TREATMENT AND CONTINUING FOR DURATION OF STUDY (STUDY DURATION: 255 D, Route [Inhibitor]: ORAL, Strain/Sex: F344/MALE, Target Tissue: Type of Lesion: LARGE INTESTINE: ADENOMA OR ADENOCARCINOMA, Dose [Carcinogen]: 25 MG/KG BW 1/WK FOR 3 WK)","tumour outcome (control, treated, inhibition, significance) (Carcinogen: METHYLAZOXYMETHANOL ACETATE, 592-62-1, Dose [Inhibitor]: 0, 1000 PPM IN DIET BEGINNING 2 WK POST CARCINOGEN TREATMENT AND CONTINUING FOR DURATION OF STUDY (STUDY DURATION: 255 D, Route [Inhibitor]: ORAL, Strain/Sex: F344/MALE, Target Tissue: Type of Lesion: SMALL INTESTINE: ADENOCARCINOMA, Dose [Carcinogen]: 25 MG/KG BW 1/WK FOR 3 WK)","tumour outcome (control, treated, inhibition, significance) (Carcinogen: METHYLAZOXYMETHANOL ACETATE, 592-62-1, Dose [Inhibitor]: 500 PPM IN DIET BEGINNING 2 WK POST LAST CARCINOGEN DOSE AND CONTINUING FOR 227 D (STUDY DURATION: 255 D), Route [Inhibitor]: ORAL, Strain/Sex: F344/MALE, Target Tissue: Type of Lesion: LARGE INTESTINE: ADENOMA OR ADENOCARCINOMA, Dose [Carcinogen]: 25 MG/KG 1/WK FOR 3 WK)","tumour outcome (control, treated, inhibition, significance) (Carcinogen: METHYLAZOXYMETHANOL ACETATE, 592-62-1, Dose [Inhibitor]: 1000 PPM IN DIET BEGINNING 2 WK POST LAST CARCINOGEN DOSE AND CONTINUING FOR 227 D (STUDY DURATION: 255 D), Route [Inhibitor]: ORAL, Strain/Sex: F344/MALE, Target Tissue: Type of Lesion: LARGE INTESTINE: ADENOMA OR ADENOCARCINOMA, Dose [Carcinogen]: 25 MG/KG 1/WK FOR 3 WK)","tumour outcome (control, treated, inhibition, significance) (Carcinogen: 7,12-DIMETHYLBENZ[A]ANTHRACENE, 57-97-6, Dose [Inhibitor]: 0, 5 MG/100 G BW 1/WK FOR 150 D BEGINNING POST CARCINOGEN TREATMENT (STUDY DURATION: 150 D), Route [Inhibitor]: SUBCUTANEOUS, Strain/Sex: WISTAR/FEMALE, Target Tissue: Type of Lesion: MAMMARY GLAND: ADENOCARCINOMA, Dose [Carcinogen]: 4 MG IN 0.1 ML OF SESAME OIL INJECTED ONCE INTO THE EXPOSED MAMMARY TISSUE OF HYPERPROLACTINEMIC RATS ON DAY 73 OF AGE)"
O,"14/30 (47%), 11/32 (34%), 28%, not significant","6/30 (20%), 5/32 (16%), 20%, not significant","14/30 (47%), 16/32 (50%), -6%, not significant","6/30 (20%), 3/32 (9%), 55%, not significant","14/30 (47%), 11/32 (34%), 28%, not significant","6/30 (20%), 6/32 (19%), 5%, not significant","11/30 (37%), 11/31 (35%), 5%, not significant","6/30 (20%), 10/31 (32%), -60%, not significant","17/32 (53%), 3/30 (10%), 81%, p<0.0002","2/32 (6%), 2/30 (7%), -17%, not significant","17/32 (53%), 9/30 (30%), 43%, not significant","2/32 (6%), 2/30 (7%), -17%, not significant","17/32 (53%), 3/30 (10%), 81%, p<0.0002","17/32 (53%), 9/30 (30%), 43%, not calculated",
CC(=O)O[C@H]1CC[C@@]2(C)C(=CC[C@@H]3[C@@H]2CC[C@]2(C)C(=O)CC[C@@H]32)C1,,,,,,,,,,,,,,,"8/11 (73%), 0/10 (0%), 100%, p<0.01"
